Measured values as given in patent publication US8858968B2, “Use of tyrosine-arginine dipeptide and niacinamide as substance P antagonist” (L'Oreal, priority 2005, dated 2014).
Ends that are not written are not given here.

Key:
[1] = system: human skin kept under survival conditions; assay: Histological evaluation of the average surface area of the capillaries in human skin kept under survival conditions, stimulated with substance P; assay type: cell-based; settings: for effect on surface area / dilatation of the dermal capillaries (in words): compared with substance P-treated skin and control skin; for Percentage of dilated dermal capillaries: substance P 10 μM in culture medium, niacinamide 0.5%, dipeptide 0.1% (b140 prints the reverse), mean +/− spread
Description: The activity of each of the active agents and of the combination thereof is evaluated in a model of human skin kept under survival conditions. After several hours of re-equilibration of the skin with culture medium (antibiotic+SVF), the culture medium is renewed and substance P at 10 (M, with or without each of the active agents or the combination thereof, is (are) added to the culture medium. […] Morphometric analysis of the surface area (μm^2) occupied by the lumen of the vessels is carried out by microscopic observation from sections: the skin fragments are fixed in Bouin's solution and embedded in paraffin and then stained with haemalun-eosine. The vascular dilatation is evaluated by counting the number of dilated vessels over the entire histological section (16 fields at 40×magnification). This analysis makes it possible to determine the average surface area (μm^2) occupied by the vessels in the dermis.

[2] = system: human skin kept under survival conditions; assay: Histological evaluation of dermal oedema (semi-quantitative score) on the skin sections of Example 1; assay type: cell-based; settings: for effect on dermal oedema (in words): compared with substance P-stimulated skin and control skin; for Dermal oedema score (0-3): human skin explant, substance P 10 μM, niacinamide 0.5%, dipeptide 0.1% (b140 prints the reverse), mean +/− spread
Description: The activity of each of the active agents and of the combination thereof is evaluated in a model of human skin kept under survival conditions. […] Using the sections prepared in Example 1, the oedema is evaluated by means of semi-quantitative scores: • score 0: no oedema • score 1: very slight oedema • score 2: moderate oedema • score 3: considerable oedema

| Molecule | effect on surface area / dilatation of the dermal capillaries (in words) [1] | Percentage of dilated dermal capillaries ([1]; human skin explant) | effect on dermal oedema (in words) [2] | Dermal oedema score (0-3) [2] | increase in the surface area compared with the normal skin ([1]; substance P at 10 μM) | average surface area occupied by the vessels in the dermis ([1]; substance P at 10 μM, human skin explant) | increase in the oedema score ([2]; treatment with substance P versus control skin) | oedema score ([2]; treatment with substance P, score 0-3) |
| --- | --- | --- | --- | --- | --- | --- | --- | --- |
| NC(=O)c1cccnc1 [niacinamide, pyridine-3-carboxamide] | back to a state corresponding to the control | 108 +/− 27.6 | back to a state corresponding to the control | 1.03 +/− 0.64 | – | – | – | – |
| N-acetyl-tyrosine-arginine-decahexyl ester [dipeptide] | back to a state corresponding to the control | 103.16 +/− 34 | back to a state corresponding to the control | 1 +/− 0.6 | – | – | – | – |
| substance P: polypeptide (undecapeptide) produced and released by a nerve ending; used at 10 μM as stimulus (RPKPQQFFGLM; ends and bridges not checked; UniProt P20366 58-68, looked up) | – | 161.6 +/− 56.6 | – | 1.9 +/− 0.7 | 63% | 161.6+/−56.6 μm^2 | 121% | 1.9+/−0.64 |
